Assay results published in patent US20050192314A1, “Urea derivatives as C-kit modulators” (Ambit Biosciences Corporation, priority 2003, published 2005).

How the values were obtained:
[1] = test system: CS0001; assay: Cell Assay: CS0001:IC50; type: cell-based
[2] = target: T1, KIT(JMminus) (Homo sapiens, UniProt P10721); assay: Binding constant (Kd) measurement, phage-displayed kinase competition binding assay: KIT(JMminus)
T1 construct: KIT(JMminus); made in house
Source text: (§1) The term “ND” represents non-determined values.

[3] = target: T2, KIT(JMminus,D816V) (Homo sapiens, UniProt P10721, D816V); assay: Binding constant (Kd) measurement, phage-displayed kinase competition binding assay: KIT(JMminus,D816V)
T2 construct: KIT(JMminus,D816V); made in house
Source text: as §1

[4] = target: T3, KIT(DKIN) (Homo sapiens, UniProt P10721); assay: Binding constant (Kd) measurement, phage-displayed kinase competition binding assay: KIT(DKIN)
T3 construct: KIT(DKIN); made in house
Source text: as §1

[5] = target: T4, MKNK2(DKIN) (Homo sapiens, UniProt Q9HBH9); assay: Binding constant (Kd) measurement, phage-displayed kinase competition binding assay: MKNK2(DKIN)
T4 construct: MKNK2(DKIN); made in house
Source text: as §1

[6] = target: KIT(JMplus) (Homo sapiens, UniProt P10721); assay: Binding constant (Kd) measurement, phage-displayed kinase competition binding assay: KIT(JMplus)
Source text: The components of the assays include human kinases expressed as fusions to T7 bacteriophage particles and immobilized ligands that bind to the ATP site of the kinases. […] If the test compound binds the kinase it competes with the immobilized ligand and prevents binding to the solid support. […] The results are read out by quantitating the amount of fusion protein bound to the solid support, which is accomplished by either traditional phage plaque assays or by quantitative PCR (qPCR) using the phage genome as a template.

[7] = target: T5, KIT(JMplus,V559D) (Homo sapiens, UniProt P10721, V559D); assay: Binding constant (Kd) measurement, phage-displayed kinase competition binding assay: KIT(JMplus,V559D)
T5 construct: KIT(JMplus); made in house
Source text: as §1

T4 sequence (Q9HBH9 84-388 limits assumed): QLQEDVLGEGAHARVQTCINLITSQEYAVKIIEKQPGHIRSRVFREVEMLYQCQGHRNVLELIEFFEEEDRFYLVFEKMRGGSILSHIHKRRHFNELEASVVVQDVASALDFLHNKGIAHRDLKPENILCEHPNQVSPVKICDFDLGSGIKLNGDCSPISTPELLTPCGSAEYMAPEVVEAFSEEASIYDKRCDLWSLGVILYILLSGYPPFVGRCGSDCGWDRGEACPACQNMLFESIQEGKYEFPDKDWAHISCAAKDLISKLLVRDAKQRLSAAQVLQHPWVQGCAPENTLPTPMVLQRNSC
T3 sequence (P10721 589-937 limits assumed): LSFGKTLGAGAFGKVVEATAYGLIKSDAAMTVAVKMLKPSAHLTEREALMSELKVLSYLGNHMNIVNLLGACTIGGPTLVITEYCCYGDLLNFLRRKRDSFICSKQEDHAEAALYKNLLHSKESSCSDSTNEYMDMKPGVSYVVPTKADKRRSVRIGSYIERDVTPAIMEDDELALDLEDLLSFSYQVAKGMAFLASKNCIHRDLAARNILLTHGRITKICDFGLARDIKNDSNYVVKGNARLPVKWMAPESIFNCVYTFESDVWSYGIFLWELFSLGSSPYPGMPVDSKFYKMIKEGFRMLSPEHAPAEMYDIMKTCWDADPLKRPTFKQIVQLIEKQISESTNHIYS
T1 sequence (P10721 589-937 limits assumed): as above
T2 sequence (P10721 589-937 D816V limits assumed): as the sequence (P10721 589-937 limits assumed) above, with D228V counted along it
KIT(JMplus), sequence (P10721 546-976 limits assumed): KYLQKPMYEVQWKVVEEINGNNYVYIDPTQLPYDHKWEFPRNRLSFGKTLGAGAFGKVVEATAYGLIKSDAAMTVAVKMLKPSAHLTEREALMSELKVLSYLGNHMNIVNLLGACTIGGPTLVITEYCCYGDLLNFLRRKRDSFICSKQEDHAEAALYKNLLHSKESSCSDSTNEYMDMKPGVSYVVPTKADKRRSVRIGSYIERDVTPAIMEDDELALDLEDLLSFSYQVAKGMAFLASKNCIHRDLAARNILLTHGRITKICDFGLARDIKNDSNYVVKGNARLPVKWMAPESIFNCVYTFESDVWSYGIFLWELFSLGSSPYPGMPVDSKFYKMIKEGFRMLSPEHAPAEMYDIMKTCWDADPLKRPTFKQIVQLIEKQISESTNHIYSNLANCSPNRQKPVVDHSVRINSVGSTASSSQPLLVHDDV
T5 sequence (P10721 546-976 V559D limits assumed): as the sequence (P10721 546-976 limits assumed) above, with V14D counted along it

Structure (SMILES) | IC50 [1] [nM] | Kd [2] [nM] | Kd [3] [nM] | Kd [4] [nM] | Kd [5] [nM] | Kd [6] [nM] | Kd [7] [nM]
CC(C)(C)c1cc(NC(=O)Nc2ccc(C(=O)/C=C/c3ccncc3)cc2)no1 | 100 to 1000 |  |  |  |  |  | 
CC(C)(C)c1cnc(CSc2cnc(NC(=O)Nc3ccon3)s2)o1 | < 100 |  |  |  |  |  | 
CC(C)(C)c1cc(NC(=O)Nc2ccc(N3C(=O)c4ccccc4C3=O)cc2)no1 [Compound A57] |  | < 100 | 1000 to 10000 |  |  |  | 
CC(C)(C)c1cc(NC(=O)Nc2ccc(OCc3ccccc3F)cc2)no1 [Compound G12, 1-(4-(2-fluorobenzyloxy)phenyl)-3-(5-tert-butylisoxazol-3-yl)urea] |  | < 100 | 1000 to 10000 | 100 to 1000 |  |  | 
CC(C)(C)c1cc(NC(=O)Nc2ccc(OCC3CC3)cc2)no1 [Compound G37] |  | < 100 | 1000 to 10000 | < 100 | 100 to 1000 |  | 
Cc1[nH]c(C(=O)Nc2ccc(NC(=O)Nc3cc(C(C)(C)C)on3)cc2)c(C)c1CCC(=O)O [Compound N39] |  |  | 100 to 1000 | < 100 |  |  | 
C=N/C(=N\C)Oc1cccc(C(=O)Nc2ccc(NC(=O)Nc3cc(C(C)(C)C)on3)cc2)c1 [Compound N74] |  | < 100 | 100 to 1000 |  | 100 to 1000 |  | 
CC(=O)Oc1cccnc1C(=O)Nc1ccc(NC(=O)Nc2cc(C(C)(C)C)on2)cc1 [Compound N79] |  | < 100 | 100 to 1000 |  |  |  | 
Cc1ccc2[nH]c(C(=O)Nc3ccc(NC(=O)Nc4cc(C(C)(C)C)on4)cc3)cc2c1 [Compound N127] |  | < 100 | 1000 to 10000 |  |  |  | 
CC(C)(C)c1cc(NC(=O)Nc2ccc(NC(=O)c3ncccc3O)cc2)no1 [Compound N134] |  | < 100 | 100 to 1000 | < 100 |  | < 100 | 
CC(C)(C)c1cc(NC(=O)Nc2ccc(C(=O)Nc3nccnc3N)cc2)no1 [Compound N157] |  | < 100 | 1000 to 10000 |  | 100 to 1000 |  | 
CC(C)(C)c1cc(NC(=O)Nc2ccc(NC(=O)c3cc4ccccc4[nH]3)cc2)no1 [Compound N161] |  | < 100 | 1000 to 10000 |  |  |  | 
Cc1nc(-c2ccc(C(=O)Nc3ccc(NC(=O)Nc4cc(C(C)(C)C)on4)cc3)s2)cs1 [Compound N173] |  | < 100 |  | 100 to 1000 |  |  | 
CC(C)(C)c1cc(NC(=O)Nc2ccc(NC(=O)c3cc(Cl)nnc3Cl)cc2)no1 [Compound N174] |  | 1000 to 10000 |  | 1000 to 10000 |  |  | 
CC(C)(C)c1cc(NC(=O)Nc2ccc(NC(=O)c3ccccn3)cc2)no1 [Compound N188] |  | < 100 | 100 to 1000 | < 100 |  | < 100 | 

Second part, the molecule after the results:

IC50 [1] [nM] | Kd [2] [nM] | Kd [3] [nM] | Kd [4] [nM] | Kd [5] [nM] | Kd [6] [nM] | Kd [7] [nM] | Structure (SMILES)
 | < 100 | 1000 to 10000 | 100 to 1000 |  |  | < 100 | COc1cc2nc(Cl)nc(Nc3ccc(NC(=O)Nc4cc(C(C)(C)C)on4)cc3)c2cc1OC [Compound O1, 1-(4-(2-chloro-6,7-dimethoxyquinazolin-4-ylamino)phenyl)-3-(5-tert-butylisoxazol-3-yl)urea]
 | < 100 |  | < 100 |  |  |  | Cc1cnc(C(=O)Nc2ccc(NC(=O)Nc3cc(C(C)(C)C)on3)cc2)cn1 [Compound O2]
 |  | < 100 | < 100 |  |  |  | CC(C)(C)c1cc(NC(=O)Nc2ccc(Nc3ncnc4[nH]cnc34)cc2)no1 [Compound O3]
 | < 100 |  | < 100 |  |  |  | CC(C)(C)c1cc(NC(=O)Nc2ccc(Nc3nc(Cl)nc4[nH]cnc34)cc2)no1 [Compound O4]
 | < 100 | < 100 |  |  |  | < 100 | COc1cc2ncnc(Nc3ccc(NC(=O)Nc4cc(C(C)(C)C)on4)cc3)c2cc1OC [Compound O5]
 | < 100 |  | 100 to 1000 |  |  |  | Cc1nc(N)cc(Nc2ccc(NC(=O)Nc3cc(C(C)(C)C)on3)cc2)n1 [Compound O10]
